Reference: patent US9969762B2
Values after ≈ are worked out from the molar mass of the structure shown. Where two headings read alike, the source gives them in different places.

How the values were obtained:
[1] = system: Fusarium roseum; settings: for Inhibition of the growth of the Fusarium roseum fungi: compound in methanol, more than 10 days at 20° C.; for Inhibition of the growth of the fungi: compound in DMSO, 10 days at 20° C.
Procedure: (§1) The antifungal activity of the N-alkyl-glycosyl(di)amine derivatives of formula (I) and of the N-alkyl-glycamine derivatives of formula (III) synthesized according to the process of the invention was evaluated on two fungi: Fusarium roseum and Fusarium sambucinum.
(§2) For this, 500 μl of solution comprising the test derivative, dissolved in DMSO or methanol, are mixed with 19.5 ml of malt agar medium (Sigma aldrich) allowing the growth of these two Fusarium isolates. The test derivative is prepared in 2 ml of methanol, then mixed with 18 ml of malt agar medium (Sigma aldrich). A spot of 10 μl of culture of each Fusarium is then deposited at the center of each Petri dish. After 10 days of incubation at 20° C., the growth diameters are measured.
(§3) The range of concentrations of N-alkyl-glycosyl(di)amine derivatives of formula (I) tested ranges from 0.1 to 25 μmol/ml.
(§4) The Fusarium growth on media containing the various molecules is compared with that obtained only with DMSO or methanol.
(§5) The same antifungal evaluation protocol as the one previously described with the compound Ij was applied for other N-alkyl-glycosyl(di)amine derivatives of formula (I) and N-alkyl-glycamine derivatives of formula (III) at concentrations ranging from 1 to 20 μmol/ml.
(§6) 2 ml of solution comprising the test compound dissolved in methanol are mixed with 18 ml of agar malt medium (Sigma aldrich) allowing the growth of these two Fusarium isolates. A spot of 10 μl of culture of each Fusarium is then deposited at the center of each Petri dish. After more than 10 days of incubation at 20° C., the growth diameters are measured.

[2] = system: Agrobacterium tumefaciens, Pectobacterium atrosepticum and Dickeya dianthicola bacteria; assay: Antibacterial activity, summary statements over the bacteria tested; type: cell-based; settings: for inhibition of the growth of the bacteria (in words): after 36 h of incubation at 30° C., compared with 4-NPO
[3] = system: Fusarium sambucinum; settings: for Inhibition of the growth of the Fusarium sambucinum fungi: compound in methanol, more than 10 days at 20° C.; for Inhibition of the growth of the fungi: compound in DMSO, 10 days at 20° C.
Procedure: as §1, §2, §3, §4, §5, §6

[4] = system: Pectobacterium atrosepticum; assay: Antibacterial activity (MIC and MBC) in TY medium; type: cell-based; settings: for MBC: plated on TY agar
[5] = system: Agrobacterium tumefaciens; assay: Antibacterial activity (MIC and MBC) in TY medium; type: cell-based; settings: for MBC: plated on TY agar
[6] = system: Dickeya dianthicola; assay: Antibacterial activity (MIC and MBC) in TY medium; type: cell-based; settings: for MBC: plated on TY agar
[7] = system: Phytophthora infestans; assay: microbe, parasite or virus in culture; type: cell-based; settings: after 6 days; 20 mg in 200 μl distilled water, spots of 10 μl
[8] = 36 h of culture at 30° C., TY medium

Structure (SMILES) | Inhibition of the growth of the Fusarium roseum fungi ([1]; 1 μmol/ml) [%] | Inhibition of the growth of the Fusarium roseum fungi ([1]; 2.5 μmol/ml) [%] | Inhibition of the growth of the Fusarium roseum fungi ([1]; 5 μmol/ml) [%] | Inhibition of the growth of the Fusarium roseum fungi ([1]; 10 μmol/ml) [%] | Inhibition of the growth of the Fusarium roseum fungi ([1]; 20 μmol/ml) [%] | inhibition of the growth of the bacteria (in words) [2] | Inhibition of the growth of the Fusarium sambucinum fungi ([3]; 1 μmol/ml) [%] | Inhibition of the growth of the Fusarium sambucinum fungi ([3]; 2.5 μmol/ml) [%] | Inhibition of the growth of the Fusarium sambucinum fungi ([3]; 5 μmol/ml) [%] | Inhibition of the growth of the Fusarium sambucinum fungi ([3]; 10 μmol/ml) [%] | Inhibition of the growth of the Fusarium sambucinum fungi ([3]; 20 μmol/ml) [%] | MIC [4, 8] [µg/mL] | MBC ([4]; 36 h of culture at 30° C.) [µg/mL] | MIC [5, 8] [µg/mL] | bactericidal activity (in words) [2] | MBC ([5]; 36 h of culture at 30° C.) [µg/mL] | further results
CCCCCNC1OC(C)[C@H](O)C(O)C1O (some centres unmarked) [compound Ic] | 0 | 18 | 99 | 99 | 100 | inhibition of the growth of the bacteria was observed | 10 | 33 | 89 | 90 | 100 | 62.5 (≈ 268 µM) | >500 | 125 (≈ 536 µM) | – | – | –
CC(O)C(O)C(O)C(O)CNCCCCCCCCCCCCN (centres unmarked) [compound IIId] | – | – | – | – | – | inhibition of the growth of the bacteria was observed | – | – | – | – | – | 62.5 (≈ 179 µM) | 62.5 (≈ 179 µM) | 52.5 (≈ 151 µM) | showed a bactericidal activity | 250 (≈ 717 µM) | MIC [6, 8]: 16 µg/mL (≈ 45.9 µM); MBC ([6]; 36 h of culture at 30° C.): 125 µg/mL (≈ 359 µM); Average diameters of inhibition zone [7]: 0 mm
CCCCCCCCCCCCNC1OC(CO)C(O)C(O)C1O (centres unmarked) [compound Ij] | – | – | – | – | – | inhibition of the growth of the bacteria was observed | – | – | – | – | – | 16 (≈ 46 µM) | – | 8 (≈ 23 µM) | showed a bactericidal activity | 16 (≈ 46 µM) | Inhibition of the growth of the fungi ([1]; 1 μmol/ml): 100%; Inhibition of the growth of the fungi ([1]; 2.5 μmol/ml): 100%; Inhibition of the growth of the fungi ([1]; 5 μmol/ml): 100%; Inhibition of the growth of the fungi ([1]; 10 μmol/ml): 100%; Inhibition of the growth of the fungi ([1]; 20 μmol/ml): 100%; Inhibition of the growth of the fungi ([1]; 25 μmol/ml): 100%; Inhibition of the growth of the fungi ([3]; 1 μmol/ml): 50%; Inhibition of the growth of the fungi ([3]; 2.5 μmol/ml): 50%; Inhibition of the growth of the fungi ([3]; 5 μmol/ml): 100%; Inhibition of the growth of the fungi ([3]; 10 μmol/ml): 100%; Inhibition of the growth of the fungi ([3]; 20 μmol/ml): 100%; Inhibition of the growth of the fungi ([3]; 25 μmol/ml): 100%; Average diameters of inhibition zone [7]: 24 mm
CC1OC(NCCCCCNC2OC(C)[C@H](O)C(O)C2O)C(O)C(O)[C@H]1O (some centres unmarked) [compound Ih] | 0 | 28 | 90 | 93 | 93 | inhibition of the growth of the bacteria was observed | 12 | 27 | 100 | 100 | 100 | 62.5 (≈ 158 µM) | 125 (≈ 317 µM) | 62.5 (≈ 158 µM) | showed a bactericidal activity | 500 (≈ 1270 µM) | –
CCCCCNC1OC(C)[C@H](O)C(O)C1O (some centres unmarked) [compound Id] | – | – | – | – | – | inhibition of the growth of the bacteria was observed | – | – | – | – | – | 62.5 (≈ 268 µM) | 250 (≈ 1070 µM) | 62.5 (≈ 268 µM) | showed a bactericidal activity | 250 (≈ 1070 µM) | –
CCCCCCCCCCCCNC1OC(CO)C(O)C(O)C1O (centres unmarked) [compound Ik] | 96 | 96 | 96 | – | – | inhibition of the growth of the bacteria was observed | 96 | 96 | 96 | – | – | 16 (≈ 46 µM) | 32 (≈ 92.1 µM) | 2 (≈ 5.76 µM) | showed a bactericidal activity | – | Average diameters of inhibition zone [7]: 24 mm
CC1OC(NCCCCCNC2OC(C)[C@H](O)C(O)C2O)C(O)C(O)[C@H]1O (some centres unmarked) [Ig] | – | – | – | – | – | inhibition of the growth of the bacteria was observed | – | – | – | – | – | 125 (≈ 317 µM) | – | 125 (≈ 317 µM) | showed a bactericidal activity | – | MBC ([4]; Pectobacterium atrosepticum, 36 h, 36 h of culture at 30° C., read-out: MBC): 250 µg/mL (≈ 634 µM); MBC ([5]; Agrobacterium tumefaciens, 36 h, 36 h of culture at 30° C., read-out: MBC): 250 µg/mL (≈ 634 µM)
CCCCNC1OC(C)[C@H](O)C(O)C1O (some centres unmarked) [compound Ib] | 0 | 0 | 0 | 70 | 88 | – | 0 | 0 | 4 | 76 | 90 | – | – | – | – | – | –
CC1OC(NCCCCCNC2OC(C)[C@H](O)C(O)C2O)C(O)C(O)[C@H]1O (some centres unmarked) [compound If] | – | – | – | – | – | inhibition of the growth of the bacteria was observed | – | – | – | – | – | 250 (≈ 634 µM) | – | >500 | – | – | –
O=[N+]([O-])c1cc[n+]([O-])cc1 [4-NPO, 4-Nitropyridine-N-oxide, reference compound] | – | – | – | – | – | – | – | – | – | – | – | – | – | – | – | – | MIC ([6]; Dickeya dianthicola, 36 h of culture at 30° C., TY medium, read-out: MIC): 16 µg/mL (≈ 114 µM); MBC ([6]; Dickeya dianthicola, 36 h of culture at 30° C., read-out: MBC): 16 µg/mL (≈ 114 µM); MIC ([6]; Dickeya dianthicola, reference bacteriostatic molecule, read-out: MIC): 16 µg/mL (≈ 114 µM); MIC ([4]; Pectobacterium atrosepticum, 36 h, 36 h of culture at 30° C., TY medium, read-out: MIC): 125 µg/mL (≈ 892 µM); MIC ([4]; Pectobacterium atrosepticum, reference bacteriostatic molecule, read-out: MIC): 125 µg/mL (≈ 892 µM); MIC ([5]; Agrobacterium tumefaciens, 36 h, 36 h of culture at 30° C., TY medium, read-out: MIC): 125 µg/mL (≈ 892 µM); MIC ([5]; Agrobacterium tumefaciens, reference bacteriostatic molecule, read-out: MIC): 125 µg/mL (≈ 892 µM)
CC1OC(NCCCCCCCCCCCCN)C(O)C(O)C1O (centres unmarked) [compound Ii] | 0 | 34 | 93 | 93 | 100 | – | 28 | 60 | 100 | 100 | 100 | 8 (≈ 23.1 µM) | 16 (≈ 46.2 µM) | 16 (≈ 46.2 µM) | showed a bactericidal activity | 32 (≈ 92.3 µM) | –
